Reference: patent publication US20160263189A1, “TREATMENT OF A NEURODEGENERATIVE DISEASE OR DISORDER” (ACADIA Pharmaceuticals Inc., priority 2013, published 2016)

Key:
[1] = tested on: primary cultures of dopaminergic neurons previously exposed to alpha-synuclein (α-syn); experiment: TH positive neurons in primary cultures of dopaminergic neurons exposed to alpha-synuclein; assay type: cell-based, rat; details: for increase in TH positive neurons over the α-synuclein alone condition: α-synuclein peptide 250 nM, 96 h; for survival of TH positive neurons compared to the control condition: neurons treated with alpha-synuclein
Procedure: Cultured neurons were treated as described above. On day 7, the media was removed, and fresh media with the α-synuclein peptide (250 nM) was added. On day 8, the media was removed, and fresh media with the α-synuclein peptide (250 nM) and the indicated drug treatments was added.
Cultured neurons were treated with alpha-synuclein as described above.

Ret = Ret immunolabeling in the SNc of 6OHDA-lesioned rats; assay type: in vivo, Sprague-Dawley rats; details: 1 mg/kg/day subcutaneously for 28 days starting 3 days after bilateral 6OHDA infusion into the SNc
Excerpt: Sprague-Dawley rats received saline infusions (denoted sham) or bilateral infusions of 6OHDA into the SNc (denoted lesion) as described (McFarland et al., 2013). […] A), RET positive cells expressed as % of sham; B), sham; C), vehicle treated lesioned animals; D) bexarotene treated lesioned animals. Shown are representative images of substantia nigral tissue immunolabeled for Ret.

[2] = tested on: primary cultures of dopaminergic neurons previously exposed to MPP+; experiment: TH positive neurons in primary cultures of dopaminergic neurons after MPP+ injury

| Molecule | increase in TH positive neurons over the α-synuclein alone condition ([1]; bexarotene alone 10 nM) | survival of TH positive neurons compared to the control condition ([1]; bexarotene alone 100 nM) | RET expression relative to sham animals (Ret) | RET positive cells in the SNc (expressed as % of sham) (Ret; vs Lesion/Veh, p<0.05) | increase in TH positive neurons over the MPP alone condition ([2]; 5 nM bexarotene alone) | % of TH positive cells compared to cells treated with MPP+ alone ([2]; 0.3, 1 or 3 nM bexarotene alone, 24 h MPP+ injury (4 μM), drugs for 48 h) | increase in TH positive neurons over the α-synuclein alone condition ([1]; GDNF alone 12.5 ng/ml) | survival of TH positive neurons compared to the control condition ([1]; GDNF alone 100 ng/ml) | increase in TH positive neurons over the MPP alone condition ([2]; 2 ng/ml GDNF alone) |
| --- | --- | --- | --- | --- | --- | --- | --- | --- | --- |
| C=C(c1ccc(C(=O)O)cc1)c1cc2c(cc1C)C(C)(C)CCC2(C)C [bexarotene, Bexarotene] | 8% | 88% | increased RET expression above the levels in the sham animals | reversed the loss of RET positive cells | 9% | not able to significantly increase | – | – | – |
| GDNF: glial-cell-line-derived neurotrophic factor, a trophic factor (protein, UniProt P39905 78-211, looked up) Glial cell line-derived …: SPDKQMAVLPRRERNRQAAAANPENSRGKGRRGQRGKNRGCVLTAIHLNVTDLGLGYETKEELIFRYCSGSCDAAETTYDKILKNLSRNRRLVSDKVGQACCRPIAFDDDLSFLDDNLVYHILRKHSAKRCGCI | – | – | – | – | – | – | 8% | 96% | 3% |
